Assay results published in PubChem BioAssay AID179 (DTP/NCI, 2004).
Activity calls are given as the source filed them.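 Rule for the calls: active = compounds giving half or more protection of infected cells from virus-caused growth loss, again on retest; inactive = the rest.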

System: CEM cells HIV-1 protection, formazan growth assay
Test: NCI AIDS Antiviral Assay
Settings: for IC50: measured here: growth of uninfected CEM cells
Summary of the method: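 Protection of CEM cells against HIV-1 was scored from cell growth (soluble formazan) across five concentrations, with parallel uninfected cells. Lack of protection may reflect toxicity.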

SMILES | EC50 [µM] | IC50 [µM] | outcome
C=C1SC(=Nc2c(C)cccc2C)N(c2nc(Cl)nc(Cl)n2)C12CCCCC2 | > 200 | 162 | 
CCCCNC(=S)SSSSC(=S)NCCCC | > 200 | 11.2 | 
Nc1cc(-c2ccccc2)nn1-c1nsc2ccccc12 | > 17.8 | > 17.8 | 
O=c1c2ccccc2nc(-c2ccccc2)n1NC(=S)Nc1ccccc1 | > 135 | 112 | 
COC(=O)C(=O)C(C(=O)C(=O)Nc1ccc([N+](=O)[O-])cc1C#N)c1nc2ccc([N+](=O)[O-])cc2[nH]c1=O (stereo unspecified) | > 490 | 209 | 
CCOC1C2c3cc4c(cc3CC(C#N)(c3ccccc32)N1C(=O)c1ccccc1)OCO4 (stereo unspecified) |  |  | inactive
O=C(C(c1ccccc1)c1ccccc1)N1CCN(c2ccccn2)CC1 | > 89.1 | 29.5 | 
CC(c1ccccc1)/[N+]([O-])=C/c1ccccc1 (stereo unspecified) | > 1120 | > 1120 | 
C[CH2][Sn]([CH2]C)([O]C(=O)c1ccc(F)cc1)[O]C(=O)c1ccc(F)cc1 | > 110 | 3.63 | 
CC(=O)Oc1cccc2c1C(=O)C(Br)(Br)CCC2 |  |  | inactive
O=C=Nc1cc(S(=O)(=O)c2ccc(Cl)c(N=C=O)c2)ccc1Cl | > 200 | > 200 | 
O=c1[nH]c2ccccc2nc1/C=C(\O)C(F)F | > 200 | > 200 | 
O=C1C2=C(c3ccccc31)C(c1cccc(Cl)c1)NC(=S)N2 (stereo unspecified) | > 57.5 | 35.5 | 
CNc1ccc(/C=C2\C=Cc3ccccc32)cc1I | > 20 | 3.39 | 
CCOC(=S)SSC(=S)OCC | > 200 | 107 | 
Cc1ccc(-c2c(C#N)c(-c3ccc(C)cc3)n(NS(=O)(=O)c3ccccc3)c(=O)c2C#N)cc1 | > 200 | 22.9 | 
CCCCCCCCCCCCCCCCCCSCC(C)(COP(=O)(O)OP(=O)(O)OCC1OC(n2cc(C)c(=O)[nH]c2=O)CC1N=[N+]=[N-])OC(=O)CCCCCCCCCCCCCCC (stereo unspecified) | 3.24 | 60.3 | 
CC(=O)NNc1nc(C)c(C(=O)NNC(=O)C(=O)Nc2c(C)cccc2C)s1 | > 89.1 | 28.2 | 
CCOP(=S)(OCC)Oc1ccc(Sc2ccc(OP(=S)(OCC)OCC)cc2)cc1 | > 200 | 30.9 | 
COC(=O)c1ccccc1COC(=O)c1cc(C(=CCC[C@H]2CC[C@@]3(C)[C@@H](CC[C@@H]4[C@@H]3CC[C@]3(C)[C@@H](C(C)CCCC(C)C)CC[C@@H]43)C2)c2cc(Cl)c(OCc3ccccc3C(=O)OC)c(C(=O)OCc3ccccc3C(=O)OC)c2)cc(Cl)c1OCc1ccccc1C(=O)OC (stereo partly specified) | > 200 | > 200 | 

SMILES | EC50 [µM] | IC50 [µM] | outcome
CCCCCCCCCCCCCCCCCCCCOC1OC(COC(C)=O)C(OC(C)=O)C(OC(C)=O)C1OC(C)=O (stereo unspecified) | > 35.5 | > 35.5 | 
COc1ccc(OC)c2c1C=C[C@H](C1(C)SCCS1)C2C(C)=O (stereo partly specified) | > 200 | 8.91 | 
Cc1oc2c(c1C)S(=O)(=O)C(C#N)=CN2 | > 200 | > 200 | 
OC1COCOC1C(O)C1OCOCC1O (stereo unspecified) | > 200 | > 200 | 
c1ccc(SC(Sc2ccccc2)=C2CCC2)cc1 |  |  | inactive
Cc1nnc2c3c(-c4ccccc4)c(-c4ccccc4)oc3nc(N(C)C)n12 |  |  | inactive
O=C(Nc1cccc(C2=NCCN2)c1)Nc1cccc(C2=NCCN2)c1 | > 200 | 32.4 | 
COc1ccc(C2OC(=O)c3cc[nH]c(=O)c32)cc1 (stereo unspecified) | > 141 | > 141 | 
CCO/S(=N/S(=O)(=O)c1ccccc1)c1ccccc1[N+](=O)[O-] (stereo unspecified) | > 708 | 182 | 
Cc1ccccc1-n1c(=O)c2ncn(CCCl)c2n(-c2ccccc2C)c1=S | > 200 | 102 | 
COc1cccc(OC)c1/C=C1\OC(=O)c2cccc(OC)c21 | > 20 | 1.17 | 
Nc1ccc2c(O)cc(=O)[nH]c2n1 | > 200 | > 200 | 
CCOP(=O)(OCC)/C(C#N)=C/c1ccc(Br)cc1 | > 275 | 162 | 
O=S(/C=C/C=C/S(=O)(=O)c1ccccc1)c1ccccc1 (stereo unspecified) | > 200 | 0.977 | 
O=C(O)CCCc1ccc2c(c1)CC1(C2)Cc2cc3c(cc2C1)CCCC3 | > 200 | 36.3 | 
Cc1cn(C2COC(CO)C2CO)c(=O)[nH]c1=O (stereo unspecified) | 44.7 | > 200 | 
CC1=C(C(=O)N[C@@H](CC(C)C)C(=O)O)N2C(=O)[C@@H](NC(=O)[C@@H](N)Cc3ccccc3)[C@H]2SC1 | > 200 | 85.1 | 
CCCCCCCCCCCC(=O)c1c(O)cc(C)oc1=O | > 100 | 5.37 | 
CN(C)CC(CC1=C(CC(CN(C)C)N(C)C)CCC1)N(C)C (stereo unspecified) |  |  | inactive
CC1NCCc2c1[nH]c1ccc(O)cc21 (stereo unspecified) |  |  | inactive

SMILES | EC50 [µM] | IC50 [µM] | outcome
Cn1c(=O)c(C(=O)NC(=O)NCCCCCOC(=O)CCCCCCCCCCC(=O)OCCCCCNC(=O)NC(=O)c2cn(Cc3ccccc3)c(=O)n(C)c2=O)cn(Cc2ccccc2)c1=O | > 7.41 | > 7.41 | 
CC1CCC2CC(=O)OC([C@@H]3C(=O)O[C@@H](C4=CCCC4)C4C(C)CCC43)C12 (stereo partly specified) | > 10 | > 10 | 
c1ccc(N2N=NC3C4CCC(C4)C32)cc1 (stereo unspecified) | > 200 | > 200 | 
O=C(Nc1ccc(OCC2=NCCN2)cc1)c1ccc(C(=O)Nc2ccc(OCC3=NCCN3)cc2)cc1 | > 200 | > 200 | 
O=C(O)c1cnccc1-c1cc(=O)[nH]n1-c1ccccc1 | > 200 | 30.2 | 
O=C(O)C1CCC(c2ccc(Oc3ccccc3)cc2)N1 (stereo unspecified) | > 200 | > 200 | 
CCOc1ccc(NC(=O)CC2SC(=Nc3ccc(C)cc3C)NC2=O)cc1 (stereo unspecified) | > 66.1 | > 66.1 | 
O=C1NC2(CCCC2)C2CCCCC12O (stereo unspecified) |  |  | inactive
CC1=C(CC2C(=O)N(c3ccccc3)S(=O)(=O)NC2C)C(=O)N(c2ccccc2)S(=O)(=O)N1C (stereo unspecified) | > 490 | 16.6 | 
S=C1CC(=S)NC(=S)N1 | > 513 | > 513 | 
COC(=O)C(=O)C(CC(=O)Nc1cccc(C(F)(F)F)c1)C(=O)OC (stereo unspecified) | > 14.5 | > 14.5 | 
COc1ccc(-c2cc(C)n(C3OC(CO)C(O)C(O)C3O)c(=S)c2C#N)cc1 (stereo unspecified) | > 200 | 126 | 
N#Cc1ccc(CSC2=C(c3ccc(Cl)cc3)S/C(=C3\SC(SCc4ccc(C#N)cc4)=C(c4ccc(Cl)cc4)S3)S2)cc1 | > 100 | > 100 | 
COc1cc2c(o1)C(=O)N1CCc3c([nH]c4ccccc34)C21 (stereo unspecified) | > 115 | 64.6 | 
O=C(O)c1ccc(CS(=O)(=O)c2ccccc2)cc1 | > 912 | > 912 | 
O=C1C(c2ccccc2)=[N+]([O-])c2cc([N+](=O)[O-])c(/C(Cl)=C/c3ccccc3)cc21 |  |  | inactive
Cn1cc(NC(=O)Nc2cc(C(=O)Nc3cc(C(=O)Nc4cc(S(=O)(=O)O)c5cc(S(=O)(=O)O)cc(S(=O)(=O)O)c5c4)n(C)c3)n(C)c2)cc1C(=O)Nc1cc(C(=O)Nc2cc(S(=O)(=O)O)c3cc(S(=O)(=O)O)cc(S(=O)(=O)O)c3c2)n(C)c1 | 4.68 | 224 | 
CC(C)(C)C1CCC2(CC1)CC(=O)N(N1CCCCCC1)C(=O)C2 | > 200 | 55 | 
Cc1ccc(/C=C2\CN(C)CC3C2=NC(=S)NC3c2ccc(C)cc2)cc1 (stereo unspecified) | > 200 | 24.5 | 
O=S(=O)(O)c1ccc(N=Nc2ccc(N=Nc3c(O)c(S(=O)(=O)O)cc4cc(S(=O)(=O)O)ccc34)cc2)cc1 |  |  | inactive
